Measurements as given in PubChem BioAssay (NCI).
Where “and” joins values, the source holds several entries; their conditions need not be identical. Equal values may be shown once.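 Briefly, cells in 96-well plates were exposed to five compound concentrations for 48 h, and endpoints were estimated by linear interpolation. At the GI50, growth is halved. TGI: concentration producing complete growth inhibition.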

Key:
Experiment in all cases: NCI-60 cell line screen, 48 h
KM12 colon = tested on: KM12 colon
M14 melanoma = tested on: M14 melanoma
HCT-116 colon = tested on: HCT-116 colon
CCRF-CEM leukemia = tested on: CCRF-CEM leukemia
UO-31 renal = tested on: UO-31 renal
NCI-H522 lung = tested on: NCI-H522 lung
OVCAR-3 ovarian = tested on: OVCAR-3 ovarian
TK-10 renal = tested on: TK-10 renal
OVCAR-5 ovarian = tested on: OVCAR-5 ovarian
SR leukemia = tested on: SR leukemia

| Structure (SMILES) | TGI (KM12 colon) | TGI (M14 melanoma) | TGI (HCT-116 colon) | TGI (CCRF-CEM leukemia) | TGI (UO-31 renal) | TGI (NCI-H522 lung) | TGI (OVCAR-3 ovarian) | TGI (TK-10 renal) | TGI (OVCAR-5 ovarian) | TGI (SR leukemia) | GI50 (KM12 colon) | GI50 (M14 melanoma) | GI50 (HCT-116 colon) | GI50 (CCRF-CEM leukemia) | GI50 (UO-31 renal) | GI50 (NCI-H522 lung) | GI50 (OVCAR-3 ovarian) | GI50 (TK-10 renal) | GI50 (OVCAR-5 ovarian) | GI50 (SR leukemia) |
| --- | --- | --- | --- | --- | --- | --- | --- | --- | --- | --- | --- | --- | --- | --- | --- | --- | --- | --- | --- | --- |
| CC(C)CCC[C@@H](C)C1CCC2[C@@H]3CC=C4C[C@@H](OC(=O)CCC(=O)NCC[N+](C)(C)CCCS(=O)(=O)[O-])CC[C@]4(C)C3CC[C@@]21C (some centres undefined) | 37.9 µM | 36 µM | 63.1 µM | 42.6 µM | > 100 µM | 73 µM | 34.5 µM |  |  |  |  |  |  |  |  |  |  |  |  |  |
| COc1ccc(/C=N\N2C(=O)Cc3ccccc32)cc1 | > 100 µM | > 100 µM | > 100 µM | > 100 µM | > 100 µM |  | > 100 µM | > 100 µM | > 100 µM |  |  |  |  |  |  |  |  |  |  |  |
| Cc1cc(C)c(-c2noc(-c3ccc(Cl)cc3)c2C2=NCCN2)c(C)c1 | 54 µM | 27 µM | 64.5 µM | 74.7 µM | 46.9 µM |  | 44.7 µM |  | > 100 µM | 48 µM |  |  |  |  |  |  |  |  |  |  |
| CC(C)(C)NC(=O)C12C3C4C1C1C2C3C41I (centres undefined) | > 100 µM |  | > 100 µM | > 100 µM | > 100 µM | > 100 µM |  | > 100 µM | > 100 µM | > 100 µM |  |  |  |  |  |  |  |  |  |  |
| CC(C)=CCNc1ncnc2c1ncn2C1OC(COP(=O)(O)O)C(O)C1O (centres undefined) | > 100 µM | > 100 µM | 25.5 µM | > 100 µM | > 52 µM | 89.4 µM | 4.41 µM | 5.59 µM | > 100 µM |  | 20.1 µM | 10.4 µM | 2.07 µM | 3.32 µM | 4.1 µM | 4.8 µM | 2.13 µM | 2.06 µM | 32.9 µM |  |
| CCOc1cccc2cccnc12 | > 100 µM | > 100 µM | > 100 µM | > 100 µM | > 100 µM | > 100 µM | > 100 µM | > 100 µM | > 100 µM |  |  |  |  |  |  |  |  |  |  |  |
| COc1ccc(OC)c(-c2cc(-c3ccc(Cl)cc3)nn2-c2ccc(S(N)(=O)=O)cc2)c1 | 21.2 µM | 19.7 µM |  |  | > 100 µM | 45.3 µM | 39.8 µM | 22.7 µM | 28.7 µM |  | 5.16 µM | 7.73 µM |  |  | 21.8 µM | 7.99 µM | 22.1 µM | 6.56 µM | 12.8 µM |  |
| COc1ccc2c(c1)C(CCN)C(=O)N2 (centres undefined) | > 100 µM | > 100 µM | > 100 µM | > 100 µM |  |  | > 100 µM | > 100 µM | > 100 µM |  |  |  |  |  |  |  |  |  |  |  |
| CC(=O)NC1=NC(=O)/C(=C/c2ccc(Cl)cc2Cl)N1C | > 100 µM | > 100 µM | > 100 µM | 34.8 µM | > 100 µM | > 100 µM | > 100 µM | > 100 µM | > 100 µM |  |  |  |  |  |  |  |  |  |  |  |
| COc1ncn(C2C=C(CO)C(O)C2O)c(=O)n1 (centres undefined) | > 100 µM | > 100 µM | > 100 µM |  | > 100 µM | > 100 µM | > 100 µM | > 100 µM |  |  |  |  |  |  |  |  |  |  |  |  |
| COc1cc(OC)cc(-c2n[nH]nc2-c2ccc3c(c2)OCO3)c1 | 11.9 µM | 12 µM | 15.6 µM | > 100 µM | 72.7 µM |  | 0.378 µM | > 100 µM | > 100 µM | 11.6 µM | 0.07 µM | 0.0948 µM | 0.181 µM | 0.282 µM | 0.661 µM |  | 0.0745 µM | 17.6 µM | 1.47 µM | 0.0436 µM |
| C=C1c2c(C)nn(-c3ccccc3)c2N(C)C23C[C@@H]1C1(C)c4c(C)nn(-c5ccccc5)c4N(C)C(C)(C[C@H]12)C3 (some centres undefined) |  |  | > 100 µM |  |  | 7.73 µM | > 100 µM | 24.5 µM | > 100 µM |  |  |  | 3.72 µM |  |  | 2.12 µM | 4.58 µM | 4.77 µM | > 100 µM |  |
| CC(CC(C)[C@H]1CCC2[C@H]3C(CC[C@@]21C)[C@@]1(C)CCC(O)C[C@H]1C[C@@H]3O)C(=O)O (some centres undefined) | > 100 µM | > 100 µM | > 100 µM | > 100 µM | > 100 µM | > 100 µM |  | > 100 µM | > 100 µM | > 100 µM |  |  |  |  |  |  |  |  |  |  |
| O=C(CCCCCCCCC(=O)OCCCn1cc(C(=O)NC(=O)OCc2ccccc2)c(=O)[nH]c1=O)OCCCn1cc(C(=O)NC(=O)OCc2ccccc2)c(=O)[nH]c1=O | > 100 µM | > 100 µM | > 100 µM | > 100 µM | > 100 µM | > 100 µM | > 100 µM | > 100 µM | > 100 µM |  |  |  |  |  |  |  |  |  |  |  |
| Cn1c(=O)c2[nH]c(Nc3ccccc3)nc2n(C)c1=O | > 10 µM | > 10 µM |  | > 10 µM |  |  |  | > 10 µM |  | > 10 µM |  |  |  |  |  |  |  |  |  |  |
| S=c1sc2ccccc2n1CN1CCN(Cc2ccccc2)CC1 | > 100 µM | > 100 µM | > 100 µM | > 100 µM | > 100 µM | > 100 µM | > 100 µM |  | > 100 µM |  |  |  |  |  |  |  |  |  |  |  |
| Nc1ncnc2c1ncn2C1OC(CO)C(O)C1O (centres undefined) | > 450 µM | > 100 µM | > 450 µM | > 284 µM | > 450 µM | > 295 µM |  | > 100 µM | > 450 µM |  |  | 32.2 µM | 7.58 µM | > 100 µM |  |  |  | 41.1 µM | > 100 µM and 257 µM and 34.6 µM |  |
| CCCCC#Cc1c(I)n(C2OC(CO[Si](C)(C)C(C)(C)C)C3OC(C)(C)OC32)c(=O)[nH]c1=O (centres undefined) | 24.5 µM | 34.8 µM | 17.9 µM | 8.04 µM | 11.2 µM | 1.95 µM | 2.86 µM | 16.8 µM | 27.9 µM |  | 11.7 µM | 17.6 µM | 5.52 µM | 2.64 µM | 1.53 µM | 0.534 µM | 1.53 µM | 4.32 µM | 14.4 µM |  |
| COc1ccccc1NC(=O)CC(=O)NNCC(=O)Nc1nc(-c2ccccc2)cs1 | > 100 µM | > 100 µM | > 100 µM | > 100 µM |  | > 100 µM | > 100 µM | > 100 µM |  |  |  |  |  |  |  |  |  |  |  |  |
| O=C1CCc2cc([N+](=O)[O-])ccc2O1 |  | > 100 µM | > 100 µM | > 100 µM |  | > 100 µM | > 100 µM | > 100 µM | > 100 µM | > 100 µM |  |  |  |  |  |  |  |  |  |  |
| COC(=O)c1ccc2n[se]nc2c1 | > 100 µM | > 100 µM | > 100 µM | > 100 µM | > 100 µM | > 100 µM |  | > 100 µM | > 100 µM | > 100 µM |  |  |  |  |  |  |  |  |  |  |
